System: SKOV3 cells (human ovarian carcinoma)
Assay: SKOV3 subcutaneous xenograft tumor growth inhibition in female SCID mice
Format: in vivo
Conditions: 21 days, alone, SKOV3 tumors in SCID mice
Procedure: Female SCID mice were implanted subcutaneously with 5×10^6 SKOV3 cells (human ovarian carcinoma). When the tumor volume reached 300-400 mm^3, mice were block randomized to different treatment groups (n=8 mice/group). Mice received AKT inhibitor, Compound B (in this assay, Compound B, is used in the form of the free or unsalted compound), at 10 or 30 mg/kg, once daily (SID) for 21 days in 20% PEG-400, 1% DMSO in water. Compound A (in this assay, Compound A, is used in the form of monohydrochloride salt) was administered at 100 mg/kg, twice/day (BID) for 21 days either alone or in combination with Compound B. Mice were weighed and tumors measured by calipers twice weekly. Tumor volumes were calculated using the formula: tumor volume=(Length×Width^2)/2. The percentage of tumor growth inhibition was calculated on each day of tumor measurement using the formula: 100×[1-(average growth of the compound-treated tumors/average growth of vehicle-treated control tumors)].

Structure (SMILES)	inhibition of tumor growth compared to vehicle treated mice (Compound A (monohydrochloride salt) 100 mg/kg, twice daily) [%]	inhibition of tumor growth compared to vehicle treated mice (Compound B (free compound) 10 mg/kg, once daily) [%]	inhibition of tumor growth compared to vehicle treated mice (Compound B (free compound) 30 mg/kg, once daily) [%]
Cc1ccc(Nc2nccc(N(C)c3ccc4c(C)n(C)nc4c3)n2)cc1S(N)(=O)=O [Compound A, 5-[[4-[(2,3-dimethyl-2H-indazol-6-yl)methylamino]-2-pyrimidinyl]amino]-2-methylbenzenesulfonamide, reference compound]	47	–	–
Cn1ncc(Cl)c1-c1cc(C(=O)N[C@H](CN)Cc2ccc(F)c(F)c2)oc1Cl [Compound B, N-{(1S)-2-amino-1-[(3,4-difluorophenyl)methyl]ethyl}-5-chloro-4-(4-chloro-1-methyl-1H-pyrazol-5-yl)-2-furancarboxamide]	–	67	86

Source: patent US20150272950A1, “COMBINATION” (GLAXOSMITHKLINE LLC, priority 2012, published 2015)
